Assay results: a melting point compilation (Tetko et al.; mined from patent text by program, amines drawn as free bases though some values may be those of a salt)

Row | SMILES | melting point [°C]
1 | Cn1c(Sc2ccccc2)c(C=NO)c(=O)n(C)c1=O | 152
2 | CS(=O)(=O)Nc1ccc(CCN2CCCCC2)cc1 | 123 to 124
3 | Fc1ccc(Nc2ncnc3cnc(NCC4CCNCC4)nc23)cc1Cl | 204 to 206
4 | Cc1ccc(S(=O)(=O)NCCC2CCC(CC(=O)O)CC2)cc1 (stereo not drawn) | 104 to 105
5 | CC1(C)CCc2cc(O)c(C=O)cc21 | 40 to 40.5
6 | C=C(CS(=O)(=O)Cc1ccccc1)c1ccccc1 | 118
7 | NCCC(C(N)=O)c1ccc(O)cc1 (stereo not drawn) | 168 to 170
8 | CC1CC(=O)c2cc(F)ccc2S1(=O)=O (stereo not drawn) | 113 to 114
9 | CC1CC2=C(CCC(O)C2)C2CCC3(C)C(CO)CCC3C12 (stereo not drawn) | 64 to 70
10 | CCCCCCCCCCCCCCOc1ccc(CC(=O)OCC)cc1OC | 40 to 41
11 | CC(N)C(=O)N(CCC(=O)O)C1Cc2ccccc2C1 (stereo not drawn) | 205 to 206
12 | O=c1[nH]sc2nc(N3CCCCC3)ncc12 | 268 to 269
13 | CCCCc1ncc(/C=C2\C(=O)NC(=O)N2CCCC)n1Cc1ccc(C(=O)O)cc1 | 163 to 165
14 | COCC#Cc1ncn2c1CN(C)C(=O)c1cc(F)ccc1-2 | 146 to 147
15 | CC(=O)SCCC(=O)N1c2ccccc2CCC1C(=O)O (stereo not drawn) | 89 to 91
16 | CCCCCCCCCCCCC(=O)NN | 101 to 104
17 | CCCCc1cnc(C2=NC(C)(C(C)C)C(=O)N2)c(C(=O)O)c1 (stereo not drawn) | 152 to 154
18 | CCCCCCCCCCCCCCCC(=O)C(O)C(=O)C(O)C(=O)CCCCCCCCCCCCCCC (stereo not drawn) | 80 to 81
19 | CCOC(=O)c1cn([C@@H](CSc2cccc(Cl)c2Cl)[C@H](C)O)cn1 | 141 to 143
20 | ClC1(CN2c3ccccc3Sc3ccccc32)CN2CCC1CC2 (stereo not drawn) | 156 to 160
21 | Cn1c(COc2ccc(CC3SC(=O)NC3=O)cc2)nc2ccc(OCCc3ccc(NC(=O)Nc4ccc(C(F)(F)F)cc4)cc3)cc21 (stereo not drawn) | 145 to 147
22 | Cc1cccc2c1Sc1c(C)cccc1N2 | 140 to 141
23 | CCOC(=O)NS(=O)(=O)c1c(C(=O)OCC)c(Cl)nn1C | 82 to 85
24 | CCOC(=O)c1ncn2c1CNC(=O)c1cc(F)ccc1-2 | 298
25 | COC(=O)c1cn(-c2ncccn2)cc1C | 108

Row | SMILES | melting point [°C]
26 | c1cc(C2CCC(c3ccc(OCC4CO4)cc3)CC2)ccc1OCC1CO1 (stereo not drawn) | 154
27 | CCC(=O)c1nc(C(C)(C)C)c(O)c(C(C)(C)C)n1 | 123 to 125
28 | CC1(C)CC(=O)c2c(SCc3ccco3)sc(-c3cc[nH]n3)c2C1 | 198 to 200
29 | O=C(Nc1ccc2[nH]ccc2c1)c1ccco1 | 181 to 182
30 | Cc1ccc(S(=O)(=O)OC2CCC(C)C2)cc1 (stereo not drawn) | < 30
31 | COC(=O)c1ccc(-c2ccc(-c3ccc4c(c3)C(C)(C)CCC4(C)C)s2)cc1 | 126 to 129
32 | CC(C)(C)NC(=O)Nc1nc2nc(N)ncc2cc1-c1c(Cl)ccc(Cl)c1Cl | 329 to 330
33 | CCC/C=C/c1ccc(C#CC(C)(C)O)c(F)c1 | 62
34 | CC(=O)c1ccc2c(c1O)CC(S(C)(=O)=O)CO2 (stereo not drawn) | 158 to 162
35 | CC(C)(C)C(=O)OC1CC(=O)C2(C)CCC3C(CCC4=CC(=O)CCC43C)C12 (stereo not drawn) | 148 to 150
36 | O=C1c2ccccc2C(=O)N1CC(O)Cn1ccnc1[N+](=O)[O-] (stereo not drawn) | 213 to 214
37 | COc1cc(N2CCNCC2)c2ncccc2c1 | 105 to 107
38 | CSc1noc(C2CC2)c1C(=O)c1ccc(C(F)(F)F)nc1C | 103 to 104
39 | O=C1C=C(NC(=O)C(=O)c2cn(Cc3ccc4ccccc4c3)c3ccccc23)CO1 | 283 to 285
40 | N#Cc1ccc(-c2ccc(-c3cn4cc(C#N)ccc4n3)o2)cc1 | 298 to 300
41 | CN(C)Cc1ccc(CSCCNc2ncc(Cc3ccn(C)c(=O)c3)c(=O)[nH]2)o1 | 129 to 132
42 | COc1ccc(CC(C)NC(=O)C(F)(F)F)cc1 (stereo not drawn) | 100 to 102
43 | COc1ccc(CN2CCc3c(cnc4[nH]ncc34)C2)cc1 | 184 to 186
44 | CCCC(CCC)C(=O)O/N=C(\C)[C@H]1CC[C@H]2[C@@H]3CCC4=CC(=O)CC[C@]4(C)[C@H]3CC[C@]12C | 78 to 80
45 | CC1(C)Oc2ccc(C#N)cc2[C@@H](NC=O)[C@@H]1OC=O (relative stereo) | 171 to 172
46 | O=C1CCC(c2ccc(CO)cc2)CC1 | 58 to 60
47 | N#Cc1ccc(CO)cc1F | 70 to 72
48 | O=C1CCC2(CCOC2=O)C(=O)C1 (stereo not drawn) | 145 to 148
49 | O=C(CC1C2CC3CC(C2)CC1C3)Nc1cccc2[nH]ccc12 (stereo not drawn) | 206 to 208
50 | CCOC(=O)c1cn(CCCl)c2cc(Cl)ccc2c1=O | 208 to 210

Second part, the molecule after the results:

Row | melting point [°C] | SMILES
51 | 172 to 174 | COc1cc2c(cc1OC)C[C@@H](N1CCN(c3ccccc3OC)CC1)[C@H](O)C2 (relative stereo)
52 | 99 to 100 | CC1CCC(C(C)C)C(OC(=O)C2(CC(=O)OC(C)(C)C)C(=O)N(Cc3ccc(Br)cc3F)C(=O)c3cccn32)C1 (stereo not drawn)
53 | 150 to 152 | CCOCOC1=C(c2cc(C)ccc2C)C(=O)NC12CCN(OC)CC2
54 | 68 to 69 | CCOC(=O)CCCNc1cccc(/C=C/c2nc3ccccc3s2)c1
55 | 165 to 166 | Cc1nn(-c2ccccn2)c2c1C(=O)CC(C)(C)C2S(=O)(=O)c1ccccc1 (stereo not drawn)
56 | 126 to 142 | CC(C)CN(C[C@H](O)COc1cccc2[nH]c3ccccc3c12)c1ccc(Oc2ccc(C(N)=O)cn2)cc1
57 | 121 to 124 | CCNC(=O)c1c([Si](C)(C)C)sc2ccccc12
58 | 190 to 192 | COC(=O)C1=C(C)NC(C)=C(C(=O)OCCC#N)C1c1cccc2c(=O)c(C)c(-c3ccccc3)oc12 (stereo not drawn)
59 | 254 | O=C(O)c1cccc2c1[nH]c1ccc(F)cc12
60 | 109 to 110 | COc1cc(Nc2cc(C(F)(F)F)nc(-c3cc(Cl)nc(Cl)c3)n2)cc(OC)c1
61 | 194 to 197 | COCc1cc(Cl)n2nc(SC)c(S(=O)(=O)c3ccccc3)c2n1
62 | 120 to 122 | Cc1nc(N2CCCC2)c2ccc(Br)cc2n1
63 | 153 to 155 | O=C1c2ccccc2C(=O)N1c1ccc(Cl)cn1
64 | 168 to 170 | COC(=O)c1ccc(CNc2cc(-c3cc4cc(F)c(F)cc4[nH]3)ccc2OC)cc1
65 | 180 | CCCCc1nc(Cl)c(CC(=O)O)c(Cc2ccc(-c3ccccc3-c3nnn[nH]3)cc2)n1
66 | 204 | Cc1cccc2c1nc(-c1ccccc1[N+](=O)[O-])n2CC(O)C(C)(C)C (stereo not drawn)
67 | 76 to 77 | COC(=O)[C@@H](NC(=O)OC(C)(C)C)[C@@H](S)c1ccccc1
68 | 158 to 163 | O=C(Nc1ccc(-n2nc(C3CC3)cc2C2CC2)cc1)c1c(F)cccc1F
69 | 150 to 151 | CCC(C)NC(=O)c1nc2cnn(CC)c2nc1-c1ccccc1 (stereo not drawn)
70 | 129 to 130 | Cc1cc(C#N)cc(C(=O)c2nc(OCc3ccccc3)nc(OCc3ccccc3)c2C(C)C)c1
71 | 199 | FC(F)(F)c1ccc(-c2cc(C(F)(F)F)n3ncc(-c4nc(-c5cccnc5)no4)c3n2)cc1
72 | 96 | CCOC(=O)COc1cc(-c2ccccc2)nc2ccccc12
73 | 195 to 196 | CCOc1cccc(-c2cnc3[nH]cc(C(=O)C(C)(C)C)c3n2)c1
74 | 189 to 191 | O=C(O)c1cc(Cl)ccc1Nc1ccc(OCc2ccccc2)cc1
75 | 129 to 130 | CCN(C(=O)N1CCN(c2cc(OC)cc(OC)c2)CC1)c1nc2ccccc2nc1OC
76 | 85 to 87 | OCc1cccn2cc(-c3ccccc3)nc12
77 | 118 to 120 | CN1C(=O)c2cc(Cl)ccc2N(C(=O)CCN2CCCC2)c2ccccc21

Row | melting point [°C] | SMILES
78 | 101 to 103 | O=C(O)COCCCCN(c1cnc(-c2ccccc2)c(-c2ccccc2)n1)C1CCCC1
79 | 303 to 307 | CS(=O)(=O)NC(=O)N[C@H]1CCN(c2ccc3c(NC(=O)CC4CCCCC4)c(Cl)ccc3n2)C1
80 | 172 to 174 | COc1cccc(-c2n[nH]c3c2Cc2ccccc2-3)c1
81 | 231 | C=C(C)C#Cc1ccc2c(c1)NC(=O)CC(c1cccc(C#N)c1)=N2
82 | 127 to 129 | COc1ccc2c(ncn2C(=O)OC(C)(C)C)c1CBr
83 | 113 to 114 | COc1ccc(/C=C/CCCCOc2ccc(C(=O)CCCC(=O)O)cc2CCC(=O)O)cc1
84 | > 200 | N=C(N)c1ccc(-c2ccc(N3CCN(CCC(=O)O)C3=O)cc2)cc1
85 | 201 to 205 | O=C(CNc1ccc2[nH]c(=O)[nH]c2c1)N1CCC(Oc2ccc(Cl)cc2)CC1
86 | 117 to 118 | CC(Oc1ccc(-c2ccc(CC(=O)NC3CC3)cc2)cc1)C(O)CCc1cccnc1 (stereo not drawn)
87 | 97 to 98.5 | CCCOc1ccccc1-c1nc(O)cc(CC)n1
88 | 51 to 52 | CN(CCCO)C(=O)c1cc2ccccc2c(-c2ccccc2I)n1
89 | 169 to 171 | O=C1C(=O)N2c3c(cccc31)OCC2c1ccccc1 (stereo not drawn)
90 | 117 to 118 | CCOC(=O)Cc1csc(-c2cc3cccc(N(C)S(=O)(=O)c4cccs4)c3[nH]2)n1
91 | 142 to 143 | CN(C)CCNC(=O)CCn1c(-c2ccc(Cl)cc2)nc2cccnc21
92 | 173 to 175 | Nc1nc(Oc2ccccc2)c2ncn(CCC(CO)CO)c2n1
93 | 103 | CCOCCNc1nc(Cl)nc(N[C@@H](C)c2ccccc2)n1
94 | 144 to 146 | Cc1ccc2oc([N+](=O)[O-])c(-c3ccccc3)c2c1
95 | 164 to 171 | CC1(c2c[nH]cn2)CCc2ccccc21 (stereo not drawn)
96 | 163 to 165 | Cc1nc2cc(Oc3cc(-c4ccc(C(C)(C)C)cc4)ncn3)ccc2s1
97 | 58 to 59 | CCNc1ccc(F)cc1OCc1ccccc1
98 | 156 to 157 | CN1CCN(CCn2c3ccccc3c(=O)c3ccccc32)CC1
99 | 142 to 144 | N#Cc1cnc2cc(/C=C/CCCN3CCOCC3)ccc2c1Nc1ccc(Cl)cc1Cl
100 | 165 to 166 | COC(=O)CCc1ccc(S(=O)(=O)c2ccc(NC(=O)c3ccc(Cl)c(Cl)c3)cn2)cc1
101 | > 400 | O=c1[nH][nH]c(=O)c2c(O)c3ccccc3nc12
102 | 260 to 262 | COc1ccc(N2CCOCC2)c2sc(-c3nc4ccc(N5CCOCC5)nc4[nH]3)nc12
103 | 175 to 176 | O=c1c(CCCc2cncnc2)cc2cccnc2n1-c1cccc([N+](=O)[O-])c1
